PMC10746543, “Design principles for cyclin K molecular glue degraders” (Nature Chemical Biology, 2023)
Several values for one entry are separate records, joined by “and”; a condition that tells them apart may be missing. Equal values may be shown once. Read-outs that look alike come from different tables or passages of the source.

Key:
CDK12–cyclin K and DDB1 = target: T1, CDK12–cyclin K and DDB1 (Homo sapiens, UniProt Q16531+Q9NYV4, K965R); experiment: TR-FRET ternary complex formation assay (compound titration); assay type: binding; conditions: for TR-FRET signal at compound concentration: replicate titrations
T1 construct: His6–CDK12 (a.a. 713–1,052); full-length or beta-propeller B domain deletion (ΔBPB: a.a. 396–705 deleted) constructs of His6–DDB1ΔBPB, StrepII–Avi–DDB1, or His6–Spy–DDB1; made in house; host or cells: Trichoplusia ni High Five insect cells (baculovirus)
Excerpt: A 70 μs delay was employed to reduce background fluorescence. The TR-FRET signal was obtained through calculating the ratio of 520 nm to 490 nm fluorescence, and Prism 9 (GraphPad) was used for further data analysis.

HEK293T cells = experiment: Drug sensitivity assay (CellTiter-Glo viability) with or without MLN4924 pretreatment; assay type: cell-based, human; conditions: Supplementary Table 2; for EC50: Homo sapiens, HEK-293T, HEK293T viability, 72 h, compound alone, read-out: Cellular assays EC50; for Toxicity rescue: MLN4924-mediated cytotoxicity rescue, 10 µM used where n.d.
Protocol: HEK293T–Cas9 cells were resuspended at 0.15 × 10^6 ml^−1 treated with DMSO or 100 nM MLN4924 and plated on 384-well plates. After 2 h, the indicated drugs were dispensed with a D300 digital dispenser (Tecan). After 3 days of drug exposure, cell viability was assessed using the CellTiter-Glo luminescent assay (Promega, G7572) on an CLARIOstar Plus, MARS 3.4 (BMG LabTech). Cell viabilities were calculated relative to DMSO controls.

[1] = in vitro complex formation, 50 nM CDK12–cyclin K, 100 nM DDB1, text and figures, read-out: TR-FRET EC50
[2] = Supplementary Table 2, read-out: TR-FRET EC50 TR-FRET
[3] = compound concentration 79.2001 nM
[4] = compound concentration 158.4 nM
[5] = compound concentration 309.6 nM
[6] = compound concentration 626.401 nM
[7] = compound concentration 1252.8 nM
[8] = compound concentration 9936.01 nM
[9] = compound concentration 20016 nM

T1 sequence (Q9NYV4 713-1052 K965R): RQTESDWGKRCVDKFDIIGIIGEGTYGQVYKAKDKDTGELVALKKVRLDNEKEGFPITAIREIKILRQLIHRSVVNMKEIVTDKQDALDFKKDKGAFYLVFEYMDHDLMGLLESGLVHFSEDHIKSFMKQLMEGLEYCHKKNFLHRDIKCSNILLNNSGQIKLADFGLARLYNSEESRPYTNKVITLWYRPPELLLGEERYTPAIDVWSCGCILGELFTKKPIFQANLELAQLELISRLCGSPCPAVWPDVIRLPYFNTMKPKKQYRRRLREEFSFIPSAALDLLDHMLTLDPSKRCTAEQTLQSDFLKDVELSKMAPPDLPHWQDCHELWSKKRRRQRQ
T1 sequence (O75909 1-267 partner): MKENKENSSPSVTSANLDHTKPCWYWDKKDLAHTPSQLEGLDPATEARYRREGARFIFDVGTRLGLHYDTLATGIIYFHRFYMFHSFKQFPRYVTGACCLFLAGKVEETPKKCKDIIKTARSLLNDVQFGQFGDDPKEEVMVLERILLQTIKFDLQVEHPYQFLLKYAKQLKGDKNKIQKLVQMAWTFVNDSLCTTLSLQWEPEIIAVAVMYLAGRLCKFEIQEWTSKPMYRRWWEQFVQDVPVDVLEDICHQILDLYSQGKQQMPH
T1 sequence (Q16531 whole entry): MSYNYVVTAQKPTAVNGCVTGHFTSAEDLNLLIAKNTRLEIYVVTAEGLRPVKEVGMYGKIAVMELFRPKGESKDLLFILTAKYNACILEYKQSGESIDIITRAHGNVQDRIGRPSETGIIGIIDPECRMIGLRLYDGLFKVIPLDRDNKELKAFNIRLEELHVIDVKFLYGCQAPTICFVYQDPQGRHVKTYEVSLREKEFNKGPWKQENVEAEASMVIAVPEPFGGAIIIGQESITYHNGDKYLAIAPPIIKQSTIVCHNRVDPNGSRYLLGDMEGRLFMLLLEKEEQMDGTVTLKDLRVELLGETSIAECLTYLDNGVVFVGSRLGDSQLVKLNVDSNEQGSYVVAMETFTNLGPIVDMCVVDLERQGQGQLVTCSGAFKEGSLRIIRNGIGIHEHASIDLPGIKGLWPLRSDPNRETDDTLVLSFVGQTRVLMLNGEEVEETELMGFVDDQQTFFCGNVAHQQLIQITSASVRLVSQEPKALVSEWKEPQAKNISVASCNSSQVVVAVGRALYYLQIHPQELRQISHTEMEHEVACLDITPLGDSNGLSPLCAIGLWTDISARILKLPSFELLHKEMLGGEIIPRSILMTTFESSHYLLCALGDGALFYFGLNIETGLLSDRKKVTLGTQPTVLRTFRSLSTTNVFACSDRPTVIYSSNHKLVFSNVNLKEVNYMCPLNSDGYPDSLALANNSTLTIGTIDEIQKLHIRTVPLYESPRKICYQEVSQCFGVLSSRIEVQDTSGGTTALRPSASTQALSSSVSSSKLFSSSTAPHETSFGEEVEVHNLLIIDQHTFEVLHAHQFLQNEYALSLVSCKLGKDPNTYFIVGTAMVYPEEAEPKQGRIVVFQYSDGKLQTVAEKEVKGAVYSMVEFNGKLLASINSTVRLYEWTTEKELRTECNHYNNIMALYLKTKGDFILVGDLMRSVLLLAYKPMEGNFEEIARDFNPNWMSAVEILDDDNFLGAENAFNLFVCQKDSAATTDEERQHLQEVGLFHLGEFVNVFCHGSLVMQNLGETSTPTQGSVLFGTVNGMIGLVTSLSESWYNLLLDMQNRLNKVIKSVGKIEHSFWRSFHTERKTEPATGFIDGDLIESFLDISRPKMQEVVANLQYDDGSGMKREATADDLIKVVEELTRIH

## Cn1cc(-n2cnc3c(NCc4cc5ccccc5[nH]4)nc(N4CCOCC4)nc32)cn1 [DS56]
CDK12–cyclin K and DDB1; compound concentration 4.68 nM, raw replicate titration data
  TR-FRET signal at compound concentration 4.68 nM: 0.1981 and 0.2221
CDK12–cyclin K and DDB1; compound concentration 21.6 nM, raw replicate titration data
  TR-FRET signal at compound concentration 21.6 nM: 0.2108 and 0.2312
CDK12–cyclin K and DDB1; compound concentration 36 nM, raw replicate titration data
  TR-FRET signal at compound concentration 36 nM: 0.221 and 0.2484
CDK12–cyclin K and DDB1; compound concentration 79.2001 nM, raw replicate titration data
  TR-FRET signal at compound concentration 79.2001 nM: 0.2309 and 0.2483
CDK12–cyclin K and DDB1; compound concentration 158.4 nM, raw replicate titration data
  TR-FRET signal at compound concentration 158.4 nM: 0.2488 and 0.2752
CDK12–cyclin K and DDB1; compound concentration 309.6 nM, raw replicate titration data
  TR-FRET signal at compound concentration 309.6 nM: 0.2871 and 0.3205
CDK12–cyclin K and DDB1; compound concentration 626.401 nM, raw replicate titration data
  TR-FRET signal at compound concentration 626.401 nM: 0.3642 and 0.3972
CDK12–cyclin K and DDB1; compound concentration 1252.8 nM, raw replicate titration data
  TR-FRET signal at compound concentration 1252.8 nM: 0.4852 and 0.5291
CDK12–cyclin K and DDB1; compound concentration 2448 nM, raw replicate titration data
  TR-FRET signal at compound concentration 2448 nM: 0.6251 and 0.6926
CDK12–cyclin K and DDB1; compound concentration 9936.01 nM, raw replicate titration data
  TR-FRET signal at compound concentration 9936.01 nM: 0.9055 and 1.021
CDK12–cyclin K and DDB1; compound concentration 20016 nM, raw replicate titration data
  TR-FRET signal at compound concentration 20016 nM: 0.9207 and 1.03
CDK12–cyclin K and DDB1; [1]
  EC50: 2.11 ± 0.252 µM

## Cn1cc(-n2cnc3c(NCc4ccc(OCCO)cc4)nc(N4CCOCC4)nc32)cn1 [DS62]
CDK12–cyclin K and DDB1; [2]
  EC50: ~2.2 µM
CDK12–cyclin K and DDB1; compound concentration 4.68 nM
  TR-FRET signal: 0.2045 and 0.2293
CDK12–cyclin K and DDB1; compound concentration 21.6 nM
  TR-FRET signal: 0.2001 and 0.225
CDK12–cyclin K and DDB1; compound concentration 36 nM
  TR-FRET signal: 0.2055 and 0.2312
CDK12–cyclin K and DDB1; [3]
  TR-FRET signal: 0.2131 and 0.2461
CDK12–cyclin K and DDB1; [4]
  TR-FRET signal: 0.2289 and 0.2537
CDK12–cyclin K and DDB1; [5]
  TR-FRET signal: 0.2472 and 0.27
CDK12–cyclin K and DDB1; [6]
  TR-FRET signal: 0.294 and 0.3255
CDK12–cyclin K and DDB1; [7]
  TR-FRET signal: 0.3562 and 0.4045
CDK12–cyclin K and DDB1; compound concentration 2448 nM
  TR-FRET signal: 0.4507 and 0.5009
CDK12–cyclin K and DDB1; [8]
  TR-FRET signal: 0.6036 and 0.6674
CDK12–cyclin K and DDB1; [9]
  TR-FRET signal: 0.6334 and 0.6963
CDK12–cyclin K and DDB1; in vitro TR-FRET
  DDB1–CDK12 complex formation, result in words: incompatible with the DDB1–CDK12 interface
CDK12–cyclin K and DDB1; [1]
  EC50: 2.2 ± 0.326 µM
HEK293T cells
  EC50: > 10 µM
  Toxicity rescue: 0%

## CC[C@H](CO)Nc1nc(NCCCCn2c(=O)oc3ccccc32)c2ncn(C(C)C)c2n1 [DS46]
CDK12–cyclin K and DDB1; [2]
  EC50: 0.627 µM
CDK12–cyclin K and DDB1; compound concentration 4.68 nM
  TR-FRET signal at compound concentration: 0.1284 and 0.1304
CDK12–cyclin K and DDB1; compound concentration 21.6 nM
  TR-FRET signal at compound concentration: 0.1505 and 0.151
CDK12–cyclin K and DDB1; compound concentration 36 nM
  TR-FRET signal at compound concentration: 0.1775 and 0.1803
CDK12–cyclin K and DDB1; [3]
  TR-FRET signal at compound concentration: 0.2245 and 0.2264
CDK12–cyclin K and DDB1; [4]
  TR-FRET signal at compound concentration: 0.2818 and 0.3032
CDK12–cyclin K and DDB1; [5]
  TR-FRET signal at compound concentration: 0.3899 and 0.4001
CDK12–cyclin K and DDB1; [6]
  TR-FRET signal at compound concentration: 0.5107 and 0.5141
CDK12–cyclin K and DDB1; [7]
  TR-FRET signal at compound concentration: 0.639 and 0.6296
CDK12–cyclin K and DDB1; compound concentration 2448 nM
  TR-FRET signal at compound concentration: 0.7343 and 0.7319
CDK12–cyclin K and DDB1; [8]
  TR-FRET signal at compound concentration: 0.8755 and 0.8533
CDK12–cyclin K and DDB1; [9]
  TR-FRET signal at compound concentration: 0.861 and 0.8686
HEK293T cells
  EC50: > 10 µM
  Toxicity rescue: 0%

## CC[C@H](CO)Nc1nc(NCc2ccccc2)c2ncn(C(C)C)c2n1 [Roscovitine]
HEK293T cells
  Toxicity rescue: 0%

## Cn1cc(-n2cnc3c(NCc4nc5ccccc5[nH]4)nc(N4CCOCC4)nc32)cn1 [DS55]
CDK12–cyclin K and DDB1; [2]
  EC50: 0.0356 µM
CDK12–cyclin K and DDB1; compound concentration 0.468 nM
  TR-FRET signal: 0.2624 and 0.2805
CDK12–cyclin K and DDB1; compound concentration 0.468 nM, raw replicate titration data
  TR-FRET signal at compound concentration 0.468 nM: 0.2624 and 0.2805
CDK12–cyclin K and DDB1; compound concentration 2.16 nM
  TR-FRET signal: 0.2884 and 0.3105
CDK12–cyclin K and DDB1; compound concentration 2.16 nM, raw replicate titration data
  TR-FRET signal at compound concentration 2.16 nM: 0.2884 and 0.3105
CDK12–cyclin K and DDB1; compound concentration 3.6 nM
  TR-FRET signal: 0.3317 and 0.3563
CDK12–cyclin K and DDB1; compound concentration 3.6 nM, raw replicate titration data
  TR-FRET signal at compound concentration 3.6 nM: 0.3317 and 0.3563
CDK12–cyclin K and DDB1; compound concentration 7.92001 nM
  TR-FRET signal: 0.4199 and 0.4425
CDK12–cyclin K and DDB1; compound concentration 7.92001 nM, raw replicate titration data
  TR-FRET signal at compound concentration 7.92001 nM: 0.4199 and 0.4425
CDK12–cyclin K and DDB1; compound concentration 15.84 nM
  TR-FRET signal: 0.5444 and 0.5762
CDK12–cyclin K and DDB1; compound concentration 15.84 nM, raw replicate titration data
  TR-FRET signal at compound concentration 15.84 nM: 0.5444 and 0.5762
CDK12–cyclin K and DDB1; compound concentration 30.96 nM
  TR-FRET signal: 0.7696 and 0.7908
CDK12–cyclin K and DDB1; compound concentration 30.96 nM, raw replicate titration data
  TR-FRET signal at compound concentration 30.96 nM: 0.7696 and 0.7908
CDK12–cyclin K and DDB1; compound concentration 62.6401 nM
  TR-FRET signal: 1.019 and 1.061
CDK12–cyclin K and DDB1; compound concentration 62.6401 nM, raw replicate titration data
  TR-FRET signal at compound concentration 62.6401 nM: 1.019 and 1.061
CDK12–cyclin K and DDB1; compound concentration 125.28 nM
  TR-FRET signal: 1.199 and 1.278
CDK12–cyclin K and DDB1; compound concentration 125.28 nM, raw replicate titration data
  TR-FRET signal at compound concentration 125.28 nM: 1.199 and 1.278
CDK12–cyclin K and DDB1; compound concentration 244.8 nM
  TR-FRET signal: 1.2725 and 1.386
CDK12–cyclin K and DDB1; compound concentration 244.8 nM, raw replicate titration data
  TR-FRET signal at compound concentration 244.8 nM: 1.2725 and 1.386
CDK12–cyclin K and DDB1; compound concentration 993.601 nM
  TR-FRET signal: 1.352 and 1.424
CDK12–cyclin K and DDB1; compound concentration 993.601 nM, raw replicate titration data
  TR-FRET signal at compound concentration 993.601 nM: 1.352 and 1.424
CDK12–cyclin K and DDB1; compound concentration 2001.6 nM
  TR-FRET signal: 1.301 and 1.386
CDK12–cyclin K and DDB1; compound concentration 2001.6 nM, raw replicate titration data
  TR-FRET signal at compound concentration 2001.6 nM: 1.301 and 1.386
CDK12–cyclin K and DDB1; [1]
  EC50: 0.036 ± 0.002 µM
HEK293T cells
  EC50: 1.03 µM
  Toxicity rescue: 336%
